From BindingDB's records for doi:10.1111/j.1747-0285.2011.01199.x (Sanford-Burnham Medical Research Institute, 2011)

Target: T1, Ephrin type-A receptor 4 [1-949,A922V] (Homo sapiens, UniProt P54764, A922V)
T1 construct: 1-949
Assay: Enzyme-linked Immunosorbent Assay
Conditions: pH 7.5
Procedure: Protein A-coasted wells (from Pierce Biotechnology) were used to immobilize Eph receptor Fc fusion proteins (from R&D systems)incubated at 1 ug/ml in TBST.

SMILES | IC50 [µM]
Cc1ccc(C)n1-c1ccc(C(=O)O)c(O)c1 [4-(2,5-dimethyl-1H-pyrrol-1-yl)-2-hydroxybenzoic acid] | 1.3
O=C(O)/C=C/c1ccc(-c2ccc(O)c(C(=O)O)c2)o1 [Salicylic acid derivative, 76A5] | > 500
Cc1ccc(C)n1-c1ccc(O)c(C(=O)O)c1 [Salicylic acid derivative, compound 2] | 10

Results, then the compound that gave them:

IC50 [µM] | SMILES
> 500 | O=C(O)c1ccc(-c2ccc(O)c(C(=O)O)c2)o1 [Salicylic acid derivative, 76B8]
2.6 | O=C(/C=C/c1ccc(-c2ccc(O)c(C(=O)O)c2)o1)/C=C/c1ccc(-c2ccc(O)c(C(=O)O)c2)o1 [Salicylic acid derivative, 76D10]
